Measurements reported in US11912701B2, “Protein kinase inhibitors for promoting liver regeneration or reducing or preventing hepatocyte death” (HEPAREGENIX GMBH, priority 2018, dated 2024).

Tests used:
Type in all cases: biochemical
MKK4 = target: T1, MKK4 (Homo sapiens, UniProt P45985); experiment: 33PanQinase enzyme assay, MKK4; details: assay 'IC50'; for IC50: read-out: Potency MKK4 (IC50)
T1 construct: purchased ProQinase GmbH, Freiburg, Germany (33PanQinase Assay Service)
T1 sequence (P45985 1-399): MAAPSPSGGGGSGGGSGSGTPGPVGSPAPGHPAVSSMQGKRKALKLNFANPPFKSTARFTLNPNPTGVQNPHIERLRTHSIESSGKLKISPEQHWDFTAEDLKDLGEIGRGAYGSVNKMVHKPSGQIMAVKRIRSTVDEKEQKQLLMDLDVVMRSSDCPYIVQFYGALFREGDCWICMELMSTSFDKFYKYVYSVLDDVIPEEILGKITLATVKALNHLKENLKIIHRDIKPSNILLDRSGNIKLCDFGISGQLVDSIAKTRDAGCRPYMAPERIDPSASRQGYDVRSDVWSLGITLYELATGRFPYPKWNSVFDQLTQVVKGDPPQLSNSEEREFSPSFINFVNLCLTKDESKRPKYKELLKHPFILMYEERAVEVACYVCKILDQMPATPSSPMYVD
Procedure, shortened: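 Radiometric 33PanQinase assay: kinase, substrate, ATP and compound in standard buffer, 60 min at 30 °C; 33Pi incorporation read by scintillation counting.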

JNK1 = JNK1 (Homo sapiens, UniProt P45983); experiment: 33PanQinase enzyme assay, JNK1; design: purchased ProQinase GmbH, Freiburg, Germany (33PanQinase Assay Service); details: ratio IC50(JNK1)/IC50(MKK4)
Procedure, shortened: (§1)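 Radiometric 33PanQinase format: kinase with substrate, ATP and compound (added in 10% DMSO stock) incubated 60 min at 30° C, stopped with 2% H3PO4, ^33Pi incorporation counted by scintillation. Single-concentration data given as % residual activity; IC50 by least-squares fit, with selectivity as IC50(off-target)/IC50(MKK4).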

MKK7 = target: T2, MKK7 (Homo sapiens, UniProt O14733); experiment: 33PanQinase enzyme assay, MKK7; design: purchased ProQinase GmbH, Freiburg, Germany (33PanQinase Assay Service); details: ratio IC50(MKK7)/IC50(MKK4)
T2 sequence (O14733 1-419): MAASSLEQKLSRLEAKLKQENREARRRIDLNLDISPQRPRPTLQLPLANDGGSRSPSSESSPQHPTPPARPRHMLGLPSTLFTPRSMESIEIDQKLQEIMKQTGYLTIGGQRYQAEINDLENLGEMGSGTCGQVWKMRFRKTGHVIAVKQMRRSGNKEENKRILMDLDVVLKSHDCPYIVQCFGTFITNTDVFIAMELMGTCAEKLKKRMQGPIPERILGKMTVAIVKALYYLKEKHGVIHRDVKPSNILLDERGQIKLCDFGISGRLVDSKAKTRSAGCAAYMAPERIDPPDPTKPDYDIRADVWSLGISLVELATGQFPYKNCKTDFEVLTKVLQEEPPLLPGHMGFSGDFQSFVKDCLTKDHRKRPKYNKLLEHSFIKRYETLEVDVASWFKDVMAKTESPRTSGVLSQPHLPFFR
Procedure, shortened: as §1

BRaf = target: T3, BRaf (Homo sapiens, UniProt P15056); experiment: 33PanQinase enzyme assay, BRaf; details: ratio IC50(BRaf)/IC50(MKK4)
T3 construct: purchased ProQinase GmbH, Freiburg, Germany (33PanQinase Assay Service)
Procedure, shortened: as §1

JNK1, sequence (P45983 whole entry): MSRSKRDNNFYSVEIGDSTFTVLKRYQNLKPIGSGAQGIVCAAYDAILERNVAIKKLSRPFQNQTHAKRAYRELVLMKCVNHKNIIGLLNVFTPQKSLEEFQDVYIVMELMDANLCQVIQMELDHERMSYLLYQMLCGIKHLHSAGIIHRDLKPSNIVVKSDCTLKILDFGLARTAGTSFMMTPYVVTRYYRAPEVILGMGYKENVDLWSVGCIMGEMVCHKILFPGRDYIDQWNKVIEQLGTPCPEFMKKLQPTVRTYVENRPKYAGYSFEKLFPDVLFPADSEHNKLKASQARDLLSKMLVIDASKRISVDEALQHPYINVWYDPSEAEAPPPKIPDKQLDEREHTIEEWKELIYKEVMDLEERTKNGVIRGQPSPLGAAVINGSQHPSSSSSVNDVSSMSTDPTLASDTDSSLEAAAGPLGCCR
T3 sequence (P15056 whole entry, species assumed): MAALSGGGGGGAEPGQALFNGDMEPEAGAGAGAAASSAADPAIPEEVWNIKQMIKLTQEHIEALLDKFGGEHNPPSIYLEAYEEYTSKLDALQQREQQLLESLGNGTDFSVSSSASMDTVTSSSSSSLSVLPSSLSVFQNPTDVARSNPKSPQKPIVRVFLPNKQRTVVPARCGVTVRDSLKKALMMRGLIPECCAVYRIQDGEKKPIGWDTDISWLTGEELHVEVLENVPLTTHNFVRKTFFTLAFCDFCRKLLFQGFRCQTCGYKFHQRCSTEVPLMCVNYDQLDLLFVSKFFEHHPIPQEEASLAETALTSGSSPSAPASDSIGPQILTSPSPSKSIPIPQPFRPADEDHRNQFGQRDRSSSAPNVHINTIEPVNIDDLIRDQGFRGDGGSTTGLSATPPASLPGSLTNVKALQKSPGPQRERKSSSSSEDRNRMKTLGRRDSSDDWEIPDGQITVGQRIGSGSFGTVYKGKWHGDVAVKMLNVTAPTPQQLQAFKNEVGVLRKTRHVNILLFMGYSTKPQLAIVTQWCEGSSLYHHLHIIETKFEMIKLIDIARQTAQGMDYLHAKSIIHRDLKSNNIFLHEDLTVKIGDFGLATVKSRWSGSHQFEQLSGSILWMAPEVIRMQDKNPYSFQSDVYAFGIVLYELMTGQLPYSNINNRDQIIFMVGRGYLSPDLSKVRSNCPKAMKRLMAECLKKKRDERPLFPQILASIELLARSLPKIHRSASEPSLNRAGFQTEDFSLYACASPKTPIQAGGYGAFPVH

Structure (SMILES) | Potency MKK4 (IC50) (MKK4) | Selectivity JNK1, IC50(off-target)/IC50(MKK4) (JNK1) | Selectivity IVIKK7, IC50(off-target)/IC50(MKK4) (MKK7) | Selectivity Braf, IC50(off-target)/IC50(MKK4) (BRaf) | IC50 (MKK4) [nM]
CCCS(=O)(=O)Nc1c(F)ccc(C(=O)c2c[nH]c3ncc(-c4ccc(S(F)(F)(F)(F)F)cc4)cc23)c1F [Example 155, N-(2,6-difluoro-3-(5-(4-(pentafluoro-l6-sulfaneyl)phenyl)-1H-pyrrolo[2,3-b]pyridine-3-carbonyl)phenyl)propane-1-sulfonamide] | ++·+ | ++ (100 ≥ IC50(off-target)/IC50(MKK4) > 10) | +++ (IC50(off-target)/IC50(MKK4) > 100) | +++ (IC50(off-target)/IC50(MKK4) > 100) | 
CCCS(=O)(=O)Nc1c(F)ccc(C(=O)c2c[nH]c3ncc(-c4ccc(S(C)(=N)=O)nc4)cc23)c1F (stereo not shown) [Example 164, N-(2,6-difluoro-3-(5-(6-(S-methylsulfonimidoyl)pyridin-3-yl)-1H-pyrrolo[2,3-b]pyridine-3-carbonyl)phenyl)propane-1-sulfonamide] |  | ++ (100 ≥ IC50(off-target)/IC50(MKK4) > 10) | +++ (IC50(off-target)/IC50(MKK4) > 100) | ++ (100 ≥ IC50(off-target)/IC50(MKK4) > 10) | < 100
CCCS(=O)(=O)Nc1c(F)ccc(C(=O)c2c[nH]c3ncc(-c4ccc(C)nc4C)cc23)c1F [Example 165, N-(3-(5-(2,6-dimethylpyridin-3-yl)-1H-pyrrolo[2,3-b]pyridine-3-carbonyl)-2,6-difluorophenyl)propane-1-sulfonamide] |  | +++ (IC50(off-target)/IC50(MKK4) > 100) | +++ (IC50(off-target)/IC50(MKK4) > 100) | +++ (IC50(off-target)/IC50(MKK4) > 100) | < 100
CCCS(=O)(=O)Nc1c(F)ccc(C(=O)c2c[nH]c3ncc(-c4ccc(C)nc4Cl)cc23)c1F [Example 166, N-(3-(5-(2-chloro-6-methylpyridin-3-yl)-1H-pyrrolo[2,3-b]pyridine-3-carbonyl)-2,6-difluorophenyl)propane-1-sulfonamide] |  | +++ (IC50(off-target)/IC50(MKK4) > 100) | +++ (IC50(off-target)/IC50(MKK4) > 100) | +++ (IC50(off-target)/IC50(MKK4) > 100) | < 100
CCCS(=O)(=O)Nc1c(F)ccc(C(=O)c2c[nH]c3ncc(-c4c(C)cc(C)nc4C)cc23)c1F [Example 168, N-(2,6-difluoro-3-(5-(2,4,6-trimethylpyridin-3-yl)-1H-pyrrolo[2,3-b]pyridine-3-carbonyl)phenyl)propane-1-sulfonamide] |  | ++ (100 ≥ IC50(off-target)/IC50(MKK4) > 10) | +++ (IC50(off-target)/IC50(MKK4) > 100) | +++ (IC50(off-target)/IC50(MKK4) > 100) | 100 to 1000

More lines, now with the values ahead:

Potency MKK4 (IC50) (MKK4) | Selectivity JNK1, IC50(off-target)/IC50(MKK4) (JNK1) | Selectivity IVIKK7, IC50(off-target)/IC50(MKK4) (MKK7) | Selectivity Braf, IC50(off-target)/IC50(MKK4) (BRaf) | IC50 (MKK4) [nM] | Structure (SMILES)
 | +++ (IC50(off-target)/IC50(MKK4) > 100) | +++ (IC50(off-target)/IC50(MKK4) > 100) | +++ (IC50(off-target)/IC50(MKK4) > 100) | < 100 | CCCS(=O)(=O)Nc1c(F)ccc(C(=O)c2c[nH]c3ncc(-c4cnc(C5CC5)cc4C)cc23)c1F [Example 167, N-(3-(5-(6-cyclopropyl-4-methylpyridin-3-yl)-1H-pyrrolo[2,3-b]pyridine-3-carbonyl)-2,6-difluorophenyl)propane-1-sulfonamide]
 | +++ (IC50(off-target)/IC50(MKK4) > 100) | +++ (IC50(off-target)/IC50(MKK4) > 100) | +++ (IC50(off-target)/IC50(MKK4) > 100) | < 100 | CCCS(=O)(=O)Nc1c(F)ccc(C(=O)c2c[nH]c3ncc(-c4ccc(C5CC5)nc4C)cc23)c1F [Example 170, N-(3-(5-(6-cyclopropyl-2-methylpyridin-3-yl)-1H-pyrrolo[2,3-b]pyridine-3-carbonyl)-2,6-difluorophenyl)propane-1-sulfonamide]
